{"source": "patent US20150087722A1", "about": "“TREATMENT FOR BREAST TUMOR CELL METASTASIS” (China Medical University, priority 2012, published 2015)", "key": {"[1]": {"tested_on": "breast tumor cells MDA-MB-231", "experiment": "MTT cell viability assay", "format": "cell-based, human", "conditions": "for IC50: Homo sapiens; for cell viability: FIG. 13", "method": "(§1) The breast tumor cells (MDA-MB-231, MDA-MB-435, MDA-MB-453, MDA-MB-468 and MCF-7) were commercially obtained from the bioresource collection and research center (BCRC), and were cultured in a 10% FBS-DMEM culture medium (i.e., a DMEM culture medium including 10% fetal bovine serum (FBS)). The human breast cell MCF-10A was cultured in a 5% FBS-DMEM culture medium (including F12, insulin, hydrocortisol and epidermal growth factor). An environment of 5% CO2 was kept in the incubator at a constant temperature of 37° C. When a certain number of cells were generated in culture, the culture medium was removed after being centrifuged for 10 min at a rate of 900 rpm. The culture medium was replaced in 24 h before the experiment, and the number of cells was counted by a hemocytometer.\n(§2) The cell viability was determined by a method of […] (MTT assay). The test method for assaying cell viability refers to steps provided by Parada-Turska et al.\n(§3) The breast tumor cells MDA-MB-231 were inoculated in a 24-well plate (2.5×10^5 cells/well), and the next day after cells were adhered to the wall of the plate, the cells were washed with PBS. 1% FBS-DMEM culture medium was then added so as to synchronize cells. The next day compound II having different concentrations were added into the wells, and the cells were subsequently cultured in an atmosphere of 5% CO2 at 37° C. for 24 h. The cells were washed with PBS once, and 400 μl MTT agent was added in each well so as to react for 4 h. Then 400 μl 10% SDS was added in each well so as to react for 12 h. 200 μl supernatant was taken from the well and then added into a 96-well microplate, so as to measure the absorbance at 570 nm.\nFIG. 13 separately illustrates the viabilities of cells treated with the compound II in different doses, and whether the viabilities of cells were recovered when the cells were treated with both the compound II and the antioxidant NAC, so as to illustrate the effect of increased reactive oxygen species caused by the compound II on the tumor cell proliferation. The test method for measuring the cell viability refers to steps described in test example 2-1. The breast tumor cells MDA-MD-231 were treated with the compound II of 0, 2, 5, 7.5, 10 and 15 μM for 24 h, and then the effect of the compound II on viability of breast tumor cells MDA-MD-231 was observed. FIG. 13 is a quantitative diagram, the data result was represented by mean±SD values, where n=3."}, "[2]": {"tested_on": "Rat Skin Tumor Cell (B16F10 cell strain)", "experiment": "MTT cell viability assay", "format": "cell-based", "conditions": "Mus musculus, B16-F10"}, "breast tumor cells MCF-7": {"tested_on": "breast tumor cells MCF-7", "experiment": "MTT cell viability assay", "format": "cell-based", "conditions": "Homo sapiens, MCF7", "method": "as §1, §2, §3"}, "[3]": {"tested_on": "human normal breast cells MCF-10A", "experiment": "MTT cell viability assay", "format": "cell-based", "method": "as §1, §2, §3"}, "[4]": {"tested_on": "Normal Endothelial Cell (EAhy926 cell strain)", "experiment": "MTT cell viability assay", "format": "cell-based, human", "method": "as §2\nas §3, with “Then 400 μl 10% SDS was added in each well so as to react for 12 h.” left out\nIn the MTT assay, the umbilical vein endothelial cells (EAhy926 cell strain) was planted 80 percent full and cultured in a 1×HAT culture medium including 15% FBS-DMEM, 1% glutamine and 1% PSN (used for screening cells having the characteristic of cell fusion). […] The culture medium was replaced in 24 h before the experiment, and the number of cells was counted by a hemocytometer. […] The supernatant was taken and putted into a 96-well microplate, and then the absorbance was measured at a wavelength of 570 nm."}, "[5]": {"tested_on": "human normal breast cells MCF-10A stimulated by TNF-α/TGF-β", "experiment": "F-actin immunofluorescence staining (cell morphology)", "format": "cell-based", "conditions": "2 μM with TNF-α/TGF-β 10 ng/ml, 24 h", "from_the_text": "FIG. 5 illustrates photographs taken at a 200× field under a fluorescence microscope, where a primary antibody F-actin is used and the cells are stained through the immunofluenrence staining method. Specifically, the photographs noted as “Control” in the first column show the morphologies of the human normal breast cells MCF-10A without being treated with the compound I and TNF-α/TGF-β. The photographs noted as “TNF-αTGF-β” in the second column show the morphologies of the human normal breast cells MCF-10A treated with TNF-α/TGF-β wherein the concentrations of TNF-α and TGF-β were 10 ng/ml. The photographs noted as “Compound I (2 μM)” in the third column show the morphologies of the human normal breast cells MCF-10A treated with the compound I having a concentration of 2 μM. The photographs noted as “TNF-α/TGF-β Compound I (2 μM)” in the fourth column show the morphologies of the human normal breast cells MCF-10A treated with the compound I, TNF-α and 10 TGF-β for 24 h, wherein the concentrations of the compound I, TNF-α and 10 TGF-β were 2 μM, 10 ng/ml and 10 ng/ml, respectively."}}, "note": "Where two headings read alike, the source gives them in different places."}
{"smiles": "COC1=C(OC)C(=O)C(C)=C(C)C1=O", "note": "[compound II]", "values": [{"measurement": "IC50", "setting": "[1]; MDA-MB-231, 0-40 μM for 24 h, FIG. 1A, read-out: IC50 for inhibiting the MDA-MB-231", "result": "~6.5", "unit": "µM"}, {"measurement": "IC50", "setting": "[1]; viability, MDA-MB-231 cell strain, Table 1, read-out: IC50", "result": 7.51, "unit": "µM"}, {"measurement": "cell viability", "setting": "[1]; MDA-MB-231, 2-15 μM, 24 h", "result": "significantly decreased"}, {"measurement": "cell viability", "setting": "[1]; MDA-MB-231, with antioxidant NAC", "result": "not influenced"}, {"measurement": "IC50", "setting": "[2]", "result": 20.6, "unit": "µM"}, {"measurement": "IC50", "setting": "breast tumor cells MCF-7; 0-40 μM for 24 h, FIG. 1A, read-out: IC50 for inhibiting the MCF-7", "result": "~30", "unit": "µM"}, {"measurement": "IC50", "setting": "breast tumor cells MCF-7; viability, MCF-7 cell strain, Table 1, read-out: IC50", "result": 27.7, "unit": "µM"}, {"measurement": "IC50", "setting": "[3]; MCF-10A, 0-40 μM for 24 h, FIG. 1A, read-out: IC50 for inhibiting the normal breast cells MCF-10A", "result": "~25", "unit": "µM"}, {"measurement": "IC50", "setting": "[3]; viability, MCF-10A cell strain, Table 1, read-out: IC50", "result": 24.1, "unit": "µM"}, {"measurement": "cell viability", "setting": "[4]; EAhy926, concentration above 10 μM, 10 ng/mL TNF-α/TGF stimulation, FIG. 18", "result": "significantly decreased"}, {"measurement": "IC50", "setting": "[4]; Homo sapiens, EA.hy 926, viability, EAhy926 cell strain", "result": 35.1, "unit": "µM"}]}
{"smiles": "COC1=C(OC)C(=O)C(C)=CC1=O", "note": "[compound I]", "values": [{"measurement": "cell morphology (F-actin staining)", "setting": "[5]", "result": "still was epithelial-like"}]}
